Test results: patent US6864051B1, “Plant gene constructs and their use” (priority 1997, dated 2005)

How the values were obtained:
[1] = test system: tobacco plants overexpressing ATH1; assay: Foliar application (spraying) of GA3 to tobacco plants overexpressing ATH1; format: in vivo, Nicotiana tabacum; settings: 35S::ATH1 tobacco; for late-flowering phenotype of ATH1 overexpressing tobacco after GA spraying: foliar GA3 spraying, data not shown
Protocol: Tobacco plants (Nicotiana tabacum L. cv. Samsun NN) were transformed using the leaf disk procedure (Horsch et al., 1985). Transgenic plants were selected on MS-medium (Murashige and Skoog, 1962) containing […] kanamycin and 2% sucrose. After transfer to soil plants were grown in a greenhouse at 22° C. under a light regime of 16 hours daylight when necessary supplemented with artificial light. The effects of gibberellin (GA) were tested by foliar applications (spraying) of 100 mM GA3 in a solution containing 100 ml/l of Triton X-100. Control plants were sprayed with a solution containing only 100 ml/l of Triton X-100. Spraying began 60 days after sowing when the wild-type plants were approximately 5 cm tall and the 35S CaMV::ATH1 plants approximately 2.5 cm tall, and continued at 3- to 4-day intervals. Plant height was measured every 3 to 4 days and this will be continued until the onset of flowering, as determined by the appearance of flower primordia.

35S::ATH1 Arabidopsis = assay: Rescue of 35S::ATH1 Arabidopsis seeds/seedlings on growth medium containing GA3; format: in vivo, Arabidopsis thaliana; settings: growth medium containing 10^-5 M GA3 for three days
Description: In order to gain more insight into the role of ATH1 in plant development, the full length ATH1 cDNA was fused to the constitutive 35S promoter of cauliflower mosaic virus and the 35S::ATH1 chimeric gene was transformed into Arabidopsis via the vacuum infiltration method. Six independent primary transformants could be obtained and all transgenic lines were selfed. From each independent transgenic line 40 individual seeds were germinated and scored for altered phenotypes compared to wild type plants. […] Once rescued and transferred to soil plants developed normally, except for a late flowering phenotype. Under short day conditions transgenic plants form much more rosette leaves (vegetative leaves) than wild type plants (about 40 rosette leaves and 100 days after germination, and plants are still not flowering, compared to about 30 rosette leaves in wild-type plants until flowering). Under LD conditions in most of these plants a partial generative to vegetative reversion occurs, shown by the formation of aerial rosettes (vegetative leaves) on the inflorescence stem. Plants (C24 ecotype) containing an extra copy of the ATH1 cDNA under control of the Hsp18.2 heat shock promoter (HspHlB plants) also show a late-flowering phenotype. […]

`C=C1C[C@]23C[C@@]1(O)CC[C@H]2[C@@]12C=C[C@H](O)[C@@](C)(C(=O)O1)[C@H]2[C@@H]3C(=O)O` [GA3, gibberellin A3] was tested, and the “late-flowering phenotype of ATH1 overexpressing tobacco after GA spraying” value [1] was “holds also true”, the “late-flowering phenotype of ATH1 overexpressing tobacco after GA spraying” value ([1]; listed as GA) was “rescue” and the “stem length (plant height) of ATH1 overexpressing tobacco after GA3” value ([1]; spraying of 100 mM GA3 at three to four day intervals) was “complete restoration of the wild-type stem length”. The “poor germination and arrest in seedling stage of 35S::ATH1 Arabidopsis” value (35S::ATH1 Arabidopsis) was “could be overcome”.
